Test results taken from patent publication US20240139136A1, “METHODS AND FORMULATIONS FOR TOPICAL ADMINISTRATION OF GABAPENTINOIDS” (VYLUMA INC., priority 2021, published 2024).

Test system: rats with post-surgical corneal injuries
Assay: Capsaicin-induced ipsilateral paw (eye) wipes in rats with post-surgical corneal injury
Format: in vivo
Conditions: 3% ophthalmic formulation, topical; challenge with 40 μL 0.1% capsaicin 15 minutes after administration; compared with capsaicin-alone baseline; FIG. 1
Procedure: Test ophthalmic formulations were administered to rats with post-surgical corneal injuries to test the efficacy of the formulations in treating corneal pain. A negative control was established by treating all animals with artificial tears (AT) and counting ipsilateral paw wipes for 60 seconds (FIG. 1, Baseline (Pre-induction)). 20 minutes later, a positive control was established by treating all animals with 40 μL 0.1% capsaicin and counting ipsilateral paw wipes for 60 seconds (FIG. 1, Baseline). Eyes were then flushed with balanced salt solution (BSS) and AT. 20 minutes later, all animals were treated with the test ophthalmic formulation (0.5% proparacaine (positive control), 3% nalbuphine, 3% pregabalin, or 3% ketamine). 15 minutes later, all animals were treated with 40 μL 0.1% capsaicin, and ipsilateral paw wipes were counted for 60 seconds (FIG. 1, 15 Minutes).

Row | Compound | eye wipes (ipsilateral paw wipes counted for 60 seconds)
1 | CNC1(c2ccccc2Cl)CCCCC1=O (stereo not drawn) [ketamine] | borderline response
2 | Oc1ccc2c3c1O[C@H]1[C@@H](O)CC[C@@]4(O)[C@@H](C2)N(CC2CCC2)CC[C@]314 [nalbuphine] | significant decrease
3 | CC(C)C[C@H](CN)CC(=O)O [pregabalin] | significant decrease
